Experiment [1] has as its target T1, hM2 receptor (CHO-K1 cells) (Homo sapiens, UniProt P08172).
T1 construct: expressed in transfected cells; host or cells: CHO-K1 cells
T1 sequence (P08172 1-466): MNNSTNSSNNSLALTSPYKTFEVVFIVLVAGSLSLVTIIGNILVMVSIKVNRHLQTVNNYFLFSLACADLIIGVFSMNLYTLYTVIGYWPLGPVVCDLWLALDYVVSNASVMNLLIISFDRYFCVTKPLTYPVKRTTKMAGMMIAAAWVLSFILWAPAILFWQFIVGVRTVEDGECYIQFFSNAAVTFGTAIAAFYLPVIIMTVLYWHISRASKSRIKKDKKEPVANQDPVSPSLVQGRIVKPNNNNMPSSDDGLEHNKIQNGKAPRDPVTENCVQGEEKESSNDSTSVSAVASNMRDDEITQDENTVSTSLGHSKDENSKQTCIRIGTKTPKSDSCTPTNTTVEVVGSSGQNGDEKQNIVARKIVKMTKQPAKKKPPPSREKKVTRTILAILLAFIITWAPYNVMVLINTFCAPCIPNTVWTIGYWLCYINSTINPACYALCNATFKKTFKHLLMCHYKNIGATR
Description: Blockade of agonist-mediated inhibition of cAMP accumulation. As to conditions: CHO-K1 cells expressing the hM2 receptor; read-out: Ki value for blockade of oxotremorine-inhibition of forskolin-mediated cAMP accumulation. The format is cell-based. How it is done: A. Blockade of Agonist-Mediated Inhibition of cAMP Accumulation
In this assay, the functional potency of a test compound was determined by measuring the ability of the test compound to block oxotremorine-inhibition of forskolin-mediated cAMP accumulation in CHO-K1 cells expressing the hM2 receptor.
cAMP assays were performed in a radioimmunoassay format using the Flashplate Adenylyl Cyclase Activation Assay System with ^125I-cAMP (NEN SMP004B, PerkinElmer Life Sciences Inc., Boston, Mass.), according to the manufacturer's instructions.
Cells were rinsed once with dPBS and lifted with Trypsin-EDTA solution (0.05% trypsin/0.53 mM EDTA) as described in the Cell Culture and Membrane Preparation section above. […] The cell pellet was then re-suspended in 10 mL dPBS, and the cells were counted with a Coulter Z1 Dual Particle Counter (Beckman Coulter, Fullerton, Calif.). […]
Reactions were incubated for 10 minutes at 37° C. and stopped by addition of 100 μL ice-cold detection buffer. Plates were sealed, incubated overnight at room temperature and counted the next morning on a PerkinElmer TopCount liquid scintillation counter (PerkinElmer Inc., Wellesley, Mass.). The amount of cAMP produced (pmol/well) was calculated based on the counts observed for the samples and cAMP standards, as described in the manufacturer's user manual. […]
In general terms: Cyclic AMP is a second messenger, typically raised through Gs and lowered through Gi signalling.

The subject of experiment [2] is pilocarpine-evoked salivation. Description: Inhalation guinea pig salivation assay. In kind it is in vivo. The protocol:
Inhalation Guinea Pig Salivation Assay
Guinea pigs (Charles River, Wilmington, Mass.) weighing 200–350 g were acclimated to the in-house guinea pig colony for at least 3 days following arrival. Test compound or vehicle were dosed via inhalation (IH) over a 10 minute time period in a pie shaped dosing chamber (R&S Molds, San Carlos, Calif.). Test solutions were dissolved in sterile water and delivered using a nebulizer filled with 5.0 mL of dosing solution. Guinea pigs were restrained in the inhalation chamber for 30 minutes. During this time, guinea pigs were restricted to an area of approximately 110 sq. cm. […] Upon completion of nebulization, guinea pigs were evaluated at 1.5, 6, 12, 24, 48, or 72 hrs after treatment.
Guinea pigs were anesthetized one hour before testing with an intramuscular (IM) injection of a mixture of ketamine 43.75 mg/kg, xylazine 3.5 mg/kg, and acepromazine 1.05 mg/kg at an 0.88 mL/kg volume. […] Saliva was collected for 10 minutes, at which point the gauze pad was weighed and the difference in weight recorded to determine the amount of accumulated saliva (in mg). The mean amount of saliva collected for animals receiving the vehicle and each dose of test compound was calculated. […] Results were calculated using result means (n=3 or greater). Confidence intervals (95%) were calculated for each dose at each time point using two-way ANOVA. […]

The term Ki denotes the equilibrium dissociation constant of an inhibitor or competing ligand from its target. In the case of `CNCC(=O)NCCCCCN1CC[C@@H](C(C(N)=O)(c2ccccc2)c2ccccc2)C1` [Example 1], the Ki in experiment [1] is under 0.1 µM. Besides, the “apparent lung selectivity index (ratio of anti-sialagogue ID50 to bronchoprotective ID50)” value in experiment [2] is recorded as “greater than 5”.

Source of the values: US7208515B2, “Diphenylmethyl compounds useful as muscarinic receptor antagonists” (Theravance, Inc., priority 2004, dated 2007).
